The values below come from US12624017B2, “Salt form of isoquinolinone type compound as rock inhibitor and preparation method therefor” (GUANGZHOU OCUSUN OPHTHALMIC BIOTECHNOLOGY CO., LTD., priority 2020, dated 2026).

Structures are written as SMILES.

A short description of the data set: Toxicokinetic test: active compound in plasma after 14 days of eye drops. Type of data set: in vivo, New Zealand white rabbits. To be noted: for Concentration of active compound in plasma: 8.0 mg/ml eye drops, after 14 days of consecutive administration. How it is done:
The rate of production of active pharmaceutical ingredients in plasma and exposure amount of the active pharmaceutical ingredients were detected after 14 days.
Male New Zealand white rabbits, aged 3 to 6 months, weighted 2.0 to 5.0 kg, purchased from Pizhou Oriental Breeding Co., Ltd.
After 14 days of consecutive administration, blood samples were collected at 0 hours (before administration) and at 0.5, 1, 2, 4, 8 and 24 hours after administration in the group of compound of formula (I) (8.0 mg/ml) at 14-15 days. Approximately 0.8 mL of whole blood was collected from the ear artery or the hindlimb saphenous vein (or other suitable site) of animal subjected to the toxicokinetic test and placed in a labeled blood collection tube with dipotassium EDTA (K2EDTA) as an anticoagulant. Plasma was obtained by centrifugation at 3000 rpm and 2° C. to 8° C. for 10 min within 60 minutes after blood collection. All samples were quantitatively detected for the content of the administrated compound in the plasma of the experimental animal by a liquid chromatography-mass spectrometry coupling technology.

Regarding `Cc1ccc(C(=O)OCn2cc(C)c3c(S(=O)(=O)N4CC[C@H](N)C4)cccc3c2=O)c(C)c1` [Compound of formula (I)], the “Concentration of active compound in plasma” value reads like this: (Group 1, 0.00 h (before administration)) “BQL”; (Group 1, 8.00 h) “BQL”; (Group 1, 8.00 h, listed as compound of formula (I)) “below the detection limit”; (Group 1, 24.0 h) “BQL”; (Group 2, 0.00 h (before administration)) “BQL”; (Group 2, 8.00 h) “BQL”. For the same compound, under “Group 2, 24.0 h”, the “Concentration of active compound in plasma” value is given as “BQL”. Moreover, the “System safety (conclusion)” value (high dose of 8 mg/mL, from plasma metabolite concentration) is “high system safety”.
